From ChEMBL document CHEMBL1201862, “PubChem BioAssay data set” (2004)
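A five-concentration, 48-hour dose response in 96-well plates underlies each endpoint, interpolated linearly between surrounding concentrations. GI50 is the concentration that inhibits growth by half.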 Activity calls are given as the source filed them. Cut-off read from the data, not from the text of the source: active = GI50 up to about 1.1 µM and inactive = higher.

Key:
Test in all cases: NCI-60 cell line screen, 48 h
[1] = tested on: SK-MEL-5
[2] = tested on: MCF7
[3] = tested on: MOLT-4
[4] = tested on: OVCAR-3
[5] = tested on: A549
[6] = tested on: HCT-15
[7] = tested on: LOX IMVI
[8] = tested on: RXF 393
[9] = tested on: NCI/ADR-RES
[10] = tested on: HT-29
[11] = tested on: UO-31
[12] = tested on: HOP-62
[13] = tested on: HOP-92
[14] = tested on: MDA-MB-231
[15] = tested on: NCI-H226
[16] = tested on: SK-MEL-28
[17] = tested on: Malme-3M
[18] = tested on: NCI-H460
[19] = tested on: OVCAR-5
[20] = tested on: HCC 2998
[21] = tested on: TK-10
[22] = tested on: CAKI-1
[23] = tested on: OVCAR-4
[24] = tested on: SNB-75
[25] = tested on: SF-539
[26] = tested on: SF-268
[27] = tested on: IGROV-1
[28] = tested on: OVCAR-8
[29] = tested on: MDA-MB-435
[30] = tested on: SK-OV-3
[31] = tested on: SNB-19
[32] = tested on: UACC-62
[33] = tested on: HCT-116
[34] = tested on: DU-145
[35] = tested on: K562
[36] = tested on: 786-0
[37] = tested on: MDA-N
[38] = tested on: RPMI-8226
[39] = tested on: PC-3
[40] = tested on: SF-295
[41] = tested on: U-251
[42] = tested on: SR
[43] = tested on: SN12C
[44] = tested on: COLO 205
[45] = tested on: EKVX
[46] = tested on: HL-60
[47] = tested on: NCI-H522
[48] = tested on: M14
[49] = tested on: CCRF-CEM
[50] = tested on: SW-620
[51] = tested on: Hs-578T
[52] = tested on: KM12
[53] = tested on: SK-MEL-2
[54] = tested on: NCI-H23
[55] = tested on: UACC-257
[56] = tested on: ACHN
[57] = tested on: A498
[58] = tested on: T47D

`COC(=O)Cc1cc2c(cc1C(=O)c1ccc(N)cc1)OCO2` was tested, and the GI50 [1] was 0.435 µM (active), the GI50 [2] was 0.902 µM (active) and the GI50 [3] was 1.63 µM (inactive). For the same compound, the GI50 [4] was 0.755 µM (active), the GI50 [5] was 3.62 µM (inactive) and the GI50 [6] was 1.1 µM. For the same compound, the GI50 [7] was 5.45 µM (inactive), the GI50 [8] was 4.34 µM (inactive) and the GI50 [9] was 0.667 µM (active). For the same compound, the GI50 [10] was 1.09 µM (active), the GI50 [11] was 13.6 µM (inactive) and the GI50 [12] was 3.84 µM (inactive). The GI50 [13] was 2.37 µM (inactive), the GI50 [14] was 3.42 µM (inactive) and the GI50 [15] was 22.2 µM (inactive). For the same compound, the GI50 [16] was 3.36 µM (inactive), the GI50 [17] was > 100 µM (inactive) and the GI50 [18] was 12.2 µM (inactive). For the same compound, the GI50 [19] was 6.46 µM (inactive), the GI50 [20] was 0.78 µM (active) and the GI50 [21] was > 19.7 µM (inactive). For the same compound, the GI50 [22] was 3.48 µM (inactive), the GI50 [23] was 11.2 µM (inactive) and the GI50 [24] was 1.21 µM (inactive). The GI50 [25] was 2.9 µM (inactive), the GI50 [26] was 2.62 µM (inactive) and the GI50 [27] was 0.625 µM (active). The GI50 [28] was 3.56 µM (inactive), the GI50 [29] was 0.169 µM (active) and the GI50 [30] was 2.94 µM (inactive). For the same compound, the GI50 [31] was 8.83 µM (inactive), the GI50 [32] was 1.11 µM (active) and the GI50 [33] was 1.77 µM (inactive). The GI50 [34] was 4.11 µM (inactive), the GI50 [35] was 0.553 µM (active) and the GI50 [36] was 5.58 µM (inactive). For the same compound, the GI50 [37] was 0.19 µM (active), the GI50 [38] was 1.5 µM (inactive) and the GI50 [39] was 1.73 µM (inactive). The GI50 [40] was 1.12 µM (active), the GI50 [41] was 3.05 µM (inactive) and the GI50 [42] was 0.117 µM (active). For the same compound, the GI50 [43] was 5.96 µM (inactive), the GI50 [44] was 1.21 µM (inactive) and the GI50 [45] was 4.03 µM (inactive). For the same compound, the GI50 [46] was 2.36 µM (inactive), the GI50 [47] was 0.228 µM (active) and the GI50 [48] was 1.64 µM (inactive). For the same compound, the GI50 [49] was 1.48 µM (inactive), the GI50 [50] was 1.19 µM (inactive) and the GI50 [51] was 2.26 µM (inactive). For the same compound, the GI50 [52] was 0.488 µM (active), the GI50 [53] was 0.964 µM (active) and the GI50 [54] was 5.68 µM (inactive).

With `Cc1ncc([N+](=O)[O-])n1CC(O)Cn1ccnc1[N+](=O)[O-]` (stereo unspecified) the GI50 [1] was > 100 µM (inactive), the GI50 [2] was > 100 µM (inactive) and the GI50 [55] was > 100 µM (inactive). For the same compound, the GI50 [56] was > 100 µM (inactive), the GI50 [3] was > 100 µM (inactive) and the GI50 [4] was > 100 µM (inactive). The GI50 [5] was > 100 µM (inactive), the GI50 [6] was over 100 µM and the GI50 [10] was > 100 µM (inactive). For the same compound, the GI50 [12] was > 100 µM (inactive), the GI50 [15] was > 100 µM (inactive) and the GI50 [16] was > 100 µM (inactive). For the same compound, the GI50 [17] was > 100 µM (inactive), the GI50 [18] was > 100 µM (inactive) and the GI50 [19] was > 100 µM (inactive). The GI50 [20] was > 100 µM (inactive), the GI50 [21] was > 100 µM (inactive) and the GI50 [24] was > 100 µM (inactive). For the same compound, the GI50 [25] was > 100 µM (inactive), the GI50 [26] was > 100 µM (inactive) and the GI50 [28] was > 100 µM (inactive). For the same compound, the GI50 [33] was > 100 µM (inactive), the GI50 [35] was > 100 µM (inactive) and the GI50 [57] was > 100 µM (inactive). The GI50 [36] was > 100 µM (inactive), the GI50 [38] was > 100 µM (inactive) and the GI50 [39] was > 100 µM (inactive). For the same compound, the GI50 [40] was > 100 µM (inactive), the GI50 [41] was > 100 µM (inactive) and the GI50 [42] was > 100 µM (inactive). The GI50 [43] was > 100 µM (inactive), the GI50 [45] was > 100 µM (inactive) and the GI50 [46] was > 100 µM (inactive). For the same compound, the GI50 [47] was > 100 µM (inactive), the GI50 [49] was > 100 µM (inactive) and the GI50 [50] was > 100 µM (inactive). The GI50 [51] was > 100 µM (inactive), the GI50 [52] was > 100 µM (inactive) and the GI50 [53] was > 100 µM (inactive). For the same compound, the GI50 [54] was > 100 µM (inactive).

`CC(C)(C)[Si](C)(C)OCC1OC(n2cc(I)c(N)nc2=O)C(O[Si](C)(C)C(C)(C)C)C1O[Si](C)(C)C(C)(C)C` (stereo unspecified) was tested, and the GI50 [1] was 10.4 µM (inactive), the GI50 [55] was 11.5 µM (inactive) and the GI50 [56] was 10.2 µM (inactive). For the same compound, the GI50 [3] was 2.5 µM (inactive), the GI50 [4] was 10.5 µM (inactive) and the GI50 [5] was 6.58 µM (inactive). For the same compound, the GI50 [6] was 18.6 µM, the GI50 [7] was 5.43 µM (inactive) and the GI50 [9] was 34.1 µM (inactive). The GI50 [10] was 5.26 µM (inactive), the GI50 [12] was 14.5 µM (inactive) and the GI50 [13] was 19.1 µM (inactive). For the same compound, the GI50 [14] was 13.3 µM (inactive), the GI50 [17] was 11.3 µM (inactive) and the GI50 [18] was 7.19 µM (inactive). The GI50 [24] was 14.3 µM (inactive), the GI50 [26] was 12.7 µM (inactive) and the GI50 [27] was 5.73 µM (inactive). For the same compound, the GI50 [28] was 12.5 µM (inactive), the GI50 [30] was 15.5 µM (inactive) and the GI50 [32] was 10.3 µM (inactive). For the same compound, the GI50 [33] was 9.42 µM (inactive), the GI50 [34] was 13.3 µM (inactive) and the GI50 [36] was 1.99 µM (inactive). For the same compound, the GI50 [37] was 12.2 µM (inactive), the GI50 [39] was 3.4 µM (inactive) and the GI50 [40] was 3.16 µM (inactive). The GI50 [58] was > 10 µM (inactive), the GI50 [42] was 5.37 µM (inactive) and the GI50 [43] was 8.28 µM (inactive). For the same compound, the GI50 [44] was 16.1 µM (inactive), the GI50 [45] was 18.6 µM (inactive) and the GI50 [47] was 3.56 µM (inactive). The GI50 [48] was 5.04 µM (inactive), the GI50 [50] was 4.58 µM (inactive) and the GI50 [51] was 11.4 µM (inactive). For the same compound, the GI50 [53] was 5.02 µM (inactive).
